Test results from ChEMBL document CHEMBL5625254, “Design, synthesis and evaluation of ursodeoxycholic acid-cinnamic acid hybrids as potential anti-inflammatory agents by inhibiting Akt/NF-κB and MAPK signaling pathways” (Eur J Med Chem, 2023).
Active and inactive are the calls of the source. No cut-off for these calls is given here.

Columns and labels:
RAW264.7 [1] = test: Anti-inflammatory activity in mouse RAW264.7 cells assessed as inhibition of LPS-induced NO production at 10 uM incubated for 24 hrs relative to control; assay type: functional
RAW264.7 [2] = test: Anti-inflammatory activity in mouse RAW264.7 cells assessed as decrease in LPS-induced p38 phosphorylation at 5 to 20 uM incubated for 24 hrs by Western blot analysis; assay type: functional, cell-based; details: dose 5-20 µM
RAW264.7 [3] = test: Anti-inflammatory activity in mouse RAW264.7 cells assessed as decrease in LPS-induced ERK phosphorylation at 5 to 20 uM incubated for 24 hrs by Western blot analysis; assay type: functional, cell-based; details: dose 5-20 µM
RAW264.7 [4] = test: Anti-inflammatory activity in mouse RAW264.7 cells assessed as decrease in LPS-induced TNF-alpha level incubated for 24 hrs by ELISA; assay type: functional, cell-based; details: dose 5-20 µM
Mus musculus [5] = test: Anti-inflammatory activity in endotoxemia ICR mouse model assessed as decrease in LPS-induced serum IL-1beta level at 10 to 20 mg/kg, IG for 7 days consecutively followed by LPS treatment measured after 24 hrs by ELISA; assay type: functional, organism-based; details: dose 10-20 mg/kg, time 8.0 day
RAW264.7 [6] = test: Anti-inflammatory activity in LPS-stimulated mouse RAW264.7 cells assessed as increase in I-kappa-B-alpha level at 5 to 20 uM preincubated for 24 hrs followed by LPS treatment for 30 mins by Western blot analysis; assay type: functional, cell-based; details: dose 5-20 µM, time 24.5 hrs
RAW264.7 [7] = test: Anti-inflammatory activity in LPS-stimulated mouse RAW264.7 cells assessed as decrease in p65 level in nucleus at 5 to 20 uM preincubated for 24 hrs followed by LPS treatment for 30 mins by Western blot analysis; assay type: functional, cell-based; details: dose 5-20 µM, time 24.5 hrs
RAW264.7 [8] = test: Effect on total p65 level in cytoplasm of LPS-stimulated mouse RAW264.7 cells at 5 to 20 uM preincubated for 24 hrs followed by LPS treatment for 30 mins by Western blot analysis; assay type: functional, cell-based; details: dose 5-20 µM, time 24.5 hrs
RAW264.7 [9] = test: Cytotoxicity against mouse RAW264.7 cells assessed as cell viability at 20 uM incubated for 24 hrs by CCK8 assay; assay type: toxicity, cell-based; details: raw264.7, 24 h
RAW264.7 [10] = test: Anti-inflammatory activity in mouse RAW264.7 cells assessed as decrease in LPS-induced PGE2 level incubated for 24 hrs by ELISA; assay type: functional, cell-based; details: dose 5-20 µM
RAW264.7 [11] = test: Anti-inflammatory activity in mouse RAW264.7 cells assessed as decrease in LPS-induced JNK phosphorylation at 5 to 20 uM incubated for 24 hrs by Western blot analysis; assay type: functional, cell-based; details: dose 5-20 µM
RAW264.7 [12] = test: Anti-inflammatory activity in mouse RAW264.7 cells assessed as decrease in LPS-induced IL-6 level incubated for 24 hrs by ELISA; assay type: functional, cell-based; details: dose 5-20 µM
RAW264.7 [13] = test: Anti-inflammatory activity in mouse RAW264.7 cells assessed as inhibition of LPS-induced NO production incubated for 24 hrs; assay type: functional, cell-based
Mus musculus [14] = test: Anti-inflammatory activity in endotoxemia ICR mouse model assessed as decrease in LPS-induced serum IL-6 level at 10 to 20 mg/kg, IG for 7 days consecutively followed by LPS treatment measured after 24 hrs by ELISA; assay type: functional, organism-based; details: dose 10-20 mg/kg, time 8.0 day
RAW264.7 [15] = test: Anti-inflammatory activity in mouse RAW264.7 cells assessed as decrease in LPS-induced iNOS level at 5 to 20 uM incubated for 24 hrs by Western blot analysis; assay type: functional, cell-based; details: dose 5-20 µM
RAW264.7 [16] = test: Anti-inflammatory activity in mouse RAW264.7 cells assessed as decrease in LPS-induced COX-2 level at 5 to 20 uM incubated for 24 hrs by Western blot analysis; assay type: functional, cell-based; details: dose 5-20 µM
RAW264.7 [17] = test: Anti-inflammatory activity in mouse RAW264.7 cells assessed as decrease in LPS-induced Akt phosphorylation at 5 to 20 uM preincubated for 24 hrs followed by LPS treatment for 30 mins by Western blot analysis; assay type: functional, cell-based; details: dose 5-20 µM, time 24.5 hrs
RAW264.7 [18] = test: Anti-inflammatory activity in mouse RAW264.7 cells assessed as decrease in LPS-induced COX-2 mRNA level incubated for 24 hrs by RT-PCR analysis; assay type: functional, cell-based; details: dose 5-20 µM
RAW264.7 [19] = test: Anti-inflammatory activity in mouse RAW264.7 cells assessed as decrease in LPS-induced IL-1beta mRNA level incubated for 24 hrs by RT-PCR analysis; assay type: functional, cell-based; details: dose 5-20 µM
RAW264.7 [20] = test: Anti-inflammatory activity in mouse RAW264.7 cells assessed as decrease in LPS-induced IL-1beta level incubated for 24 hrs by ELISA; assay type: functional, cell-based; details: dose 5-20 µM
RAW264.7 [21] = test: Anti-inflammatory activity in mouse RAW264.7 cells assessed as decrease in LPS-induced IL-6 mRNA level incubated for 24 hrs by RT-PCR analysis; assay type: functional, cell-based; details: dose 5-20 µM
Mus musculus [22] = test: Anti-inflammatory activity in endotoxemia ICR mouse model assessed as decrease in LPS-induced serum TNF-alpha level at 10 to 20 mg/kg, IG for 7 days consecutively followed by LPS treatment measured after 24 hrs by ELISA; assay type: functional, organism-based; details: dose 10-20 mg/kg, time 8.0 day

Cc1ccc(/C=C/C(=O)N2CCN(C(=O)CC[C@@H](C)[C@H]3CC[C@H]4[C@@H]5[C@@H](O)C[C@@H]6C[C@H](O)CC[C@]6(C)[C@H]5CC[C@]34C)CC2)cc1
inhibition at 10 µM (RAW264.7 [1]): > 50%
Activity (RAW264.7 [2]): Active
Activity (RAW264.7 [3]): Active
Activity (RAW264.7 [4]): Dose-Dependent Effect
Activity (Mus musculus [5]): Active
Activity (RAW264.7 [6]): Active
Activity (RAW264.7 [7]): Active
Activity (RAW264.7 [8]): inactive
Activity (RAW264.7 [9]): Non-Toxic
Activity (RAW264.7 [10]): Dose-Dependent Effect
Activity (RAW264.7 [11]): Active
Activity (RAW264.7 [12]): Dose-Dependent Effect
IC50 (RAW264.7 [13]; RAW264.7, 24 h): 7.7 µM
inhibition (RAW264.7 [13]; dose 1.25-20 µM): Dose-Dependent Effect
Activity (Mus musculus [14]): Active
Activity (RAW264.7 [15]): Active
Activity (RAW264.7 [16]): Active
Activity (RAW264.7 [17]): Active
Activity (RAW264.7 [18]): Dose-Dependent Effect
Activity (RAW264.7 [19]): Dose-Dependent Effect
Activity (RAW264.7 [20]): Dose-Dependent Effect
Activity (RAW264.7 [21]): Dose-Dependent Effect
Activity (Mus musculus [22]): Active
